According to patent US20250136559A1, “SMO MODULATOR COMPOUNDS” (OMASS THERAPEUTICS LIMITED, priority 2022, published 2025):

Tests used:
Assay type in all cases: cell-based
mouse SMO^D473H = molecular target: T1, mouse SMO^D473H (Mus musculus, UniProt P56726, D477H); assay: Mouse assay: Gli1 qPCR in MEF cells stably expressing mouse SMO D473H; settings: mSHh-treated, 24 hours; for IC50: Gli1 inhibition by qPCR, read-out: Mouse D473H pIC50 (converted); for Mouse D473H % Inh: percentage Gli1 inhibition
T1 construct: expressed in transfected cells
T1 sequence (P56726 33-793 D477H): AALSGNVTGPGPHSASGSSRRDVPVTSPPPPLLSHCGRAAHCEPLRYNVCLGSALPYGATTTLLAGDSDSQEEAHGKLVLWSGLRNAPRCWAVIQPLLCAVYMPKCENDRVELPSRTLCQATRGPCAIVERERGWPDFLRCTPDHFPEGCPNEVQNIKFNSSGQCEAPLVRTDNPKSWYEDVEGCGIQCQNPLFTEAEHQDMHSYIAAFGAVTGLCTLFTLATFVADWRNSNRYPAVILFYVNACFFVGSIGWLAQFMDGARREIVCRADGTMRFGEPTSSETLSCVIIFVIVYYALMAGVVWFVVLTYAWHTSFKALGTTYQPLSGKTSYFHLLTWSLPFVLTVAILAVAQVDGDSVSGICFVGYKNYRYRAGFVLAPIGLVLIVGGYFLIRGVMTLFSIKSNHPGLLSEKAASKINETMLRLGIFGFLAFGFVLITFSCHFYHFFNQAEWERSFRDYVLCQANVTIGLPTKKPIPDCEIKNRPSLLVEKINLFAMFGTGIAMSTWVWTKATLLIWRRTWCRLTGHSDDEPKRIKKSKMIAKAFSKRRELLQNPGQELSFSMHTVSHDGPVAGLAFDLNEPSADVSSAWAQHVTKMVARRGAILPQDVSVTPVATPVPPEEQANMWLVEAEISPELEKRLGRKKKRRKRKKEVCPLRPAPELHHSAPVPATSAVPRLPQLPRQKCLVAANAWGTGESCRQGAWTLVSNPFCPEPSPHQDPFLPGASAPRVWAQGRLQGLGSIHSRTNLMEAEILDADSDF
In short: (§1)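 MEFs stably expressing the SMO variant pre-treated with compound 1 h, then stimulated with mSHh and incubated 24 h at 37 °C. Gli1 mRNA quantified by one-step TaqMan qPCR with Gusb reference, four replicates per concentration; expressed as % Gli1 inhibition relative to mSHh-treated controls.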

human SMO W535L = molecular target: T2, human SMO W535L (Homo sapiens, UniProt Q99835, W535L); assay: Human assay: Gli1 qPCR in MEF SMO-/- cells BacMam-transduced with hSMO W535L variant; settings: mSHh-treated, 24 hours; for IC50: Gli1 inhibition by qPCR, read-out: Human W535L pIC50 (converted); for Human W535L % Inh: percentage Gli1 inhibition
T2 construct: expressed in transfected cells; host or cells: SMO knock-out mouse embryonic fibroblasts (MEF SMO-/-), BacMam transduction
T2 sequence (Q99835 28-787 W535L): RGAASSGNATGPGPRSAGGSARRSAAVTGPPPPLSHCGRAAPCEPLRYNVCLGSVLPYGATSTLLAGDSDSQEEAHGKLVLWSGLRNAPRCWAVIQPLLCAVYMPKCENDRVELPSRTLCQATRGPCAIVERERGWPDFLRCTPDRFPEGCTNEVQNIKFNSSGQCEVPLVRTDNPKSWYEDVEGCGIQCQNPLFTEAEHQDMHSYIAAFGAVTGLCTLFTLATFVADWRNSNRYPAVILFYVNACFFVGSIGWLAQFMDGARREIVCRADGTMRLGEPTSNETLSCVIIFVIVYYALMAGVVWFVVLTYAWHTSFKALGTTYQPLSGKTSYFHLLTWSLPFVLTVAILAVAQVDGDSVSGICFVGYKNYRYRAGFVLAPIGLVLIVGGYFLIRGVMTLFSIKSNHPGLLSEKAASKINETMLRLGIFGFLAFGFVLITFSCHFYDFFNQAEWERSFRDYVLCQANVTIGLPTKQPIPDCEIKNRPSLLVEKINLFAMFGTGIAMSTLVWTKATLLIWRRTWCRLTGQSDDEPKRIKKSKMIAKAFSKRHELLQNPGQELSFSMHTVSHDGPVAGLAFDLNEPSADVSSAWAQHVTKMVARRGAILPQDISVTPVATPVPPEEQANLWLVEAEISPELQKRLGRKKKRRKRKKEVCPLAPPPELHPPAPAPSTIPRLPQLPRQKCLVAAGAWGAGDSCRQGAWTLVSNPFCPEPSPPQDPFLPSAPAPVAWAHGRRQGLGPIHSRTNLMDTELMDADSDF
Method: (§2) Cell culture. All materials were purchased from Sigma-Aldrich, unless otherwise stated. SMO knock-out mouse embryonic fibroblasts (MEF^SMO−/−) were maintained in Dulbecco's modified Eagle's medium (DMEM)/high-glucose medium supplemented with 10% foetal bovine serum (FBS, Invitrogen), 50 U/mL penicillin and 5 mg/mL streptomycin (supplied as a mixture), 0.1 mMMEM Non-Essential Amino Acids (supplied as 100× solution, ThermoFisher) and 1 mM sodium pyruvate at 37° C. in a humidified 95% air/5% CO2 atmosphere.
(§3) BacMam transduction and compound treatment. MEF^SMO−/− cells were transduced with BacMam virus (MOI 1:10 in the presence of 4.2 mM valproic acid) containing either the hSMO WT or desired receptor variant sequence. Transduced cells were seeded at 6000 cells per well in a Poly-D-Lysine coated 384-well plate (Greiner) before the spent culture medium was removed on the following day and replaced with assay medium (OptiMEM (Gibco) supplemented with 50 U/mL penicillin and 5 mg/mL streptomycin (supplied as a mixture), 0.1 mMMEM Non-Essential Amino Acids (supplied as 100× solution, ThermoFisher), 1 mM sodium pyruvate and 10 mM HEPES) containing test compounds at 2.5× final assay concentrations. After 1 hour incubation, cells were treated with assay medium containing mSHh prepared at 2.5× of final assay concentrations specified in the text and incubated for a further 24 hours at 37° C. in a humidified 95% air/5% ° C.2 atmosphere prior to qPCR analysis.
(§4) Cell lysis and one-step qPCR. The Cells-to-CT™ 1-Step TaqMan® Kit was used in conjunction with TaqMan primer-probe assays for the detection of Gill (FAM, Mm00494654_m1) and Gusb (VIC, Mm01197698_m1) genes (all purchased from Life Technologies). Following 24 hours cell treatment, spent medium was removed and cells were washed with PBS before the application of lysis and stop solution as per manufacturer's instructions. The qPCR reactions were run in a 384-well PCR plate using master mix prepared according to manufacturer's instructions and cell lysate samples from treatment wells. Real-time PCR amplification was detected using the Bio-Rad CFX384 Touch PCR system. Four experimental replicates (two cell replicates and two qPCR replicates) were performed for each compound concentration tested. Real-time data were analysed using the CFX Maestro software (Bio-Rad) and obtained expression values were converted to percentage Gill inhibition by normalising to the average Gill expression of mSHh-treated control samples

hSMO WT = molecular target: T3, hSMO WT (Homo sapiens, UniProt Q99835); assay: Human assay: Gli1 qPCR in MEF SMO-/- cells BacMam-transduced with hSMO WT; settings: mSHh-treated, 24 hours; for IC50: Gli1 inhibition by qPCR, read-out: Human WT pIC50 (converted); for Human WT % Inh: percentage Gli1 inhibition
T3 construct: expressed in transfected cells; host or cells: SMO knock-out mouse embryonic fibroblasts (MEF SMO-/-), BacMam transduction
T3 sequence (Q99835 28-787): as the sequence (Q99835 28-787 W535L) above, with L508W counted along it
Method: as §2, §3, §4

mouse SMO^WT = molecular target: T4, mouse SMO^WT (Mus musculus, UniProt P56726); assay: Mouse assay: Gli1 qPCR in MEF cells stably expressing mouse SMO WT; settings: mSHh-treated, 24 hours; for IC50: Gli1 inhibition by qPCR, read-out: Mouse WT pIC50 (converted); for Mouse WT % Inh: percentage Gli1 inhibition
T4 construct: expressed in transfected cells
T4 sequence (P56726 33-793): as the sequence (P56726 33-793 D477H) above, with H445D counted along it
In short: as §1

mouse SMO^W535L = molecular target: T5, mouse SMO^W535L (Mus musculus, UniProt P56726, W539L); assay: Mouse assay: Gli1 qPCR in MEF cells stably expressing mouse SMO W535L; settings: mSHh-treated, 24 hours; for IC50: Gli1 inhibition by qPCR, read-out: Mouse W535L pIC50 (converted); for Mouse W535L % Inh: percentage Gli1 inhibition
T5 construct: expressed in transfected cells
T5 sequence (P56726 33-793 W539L): as the sequence (P56726 33-793 D477H) above, with H445D, W507L counted along it
In short: as §1

human SMO D473H = molecular target: T6, human SMO D473H (Homo sapiens, UniProt Q99835, D473H); assay: Human assay: Gli1 qPCR in MEF SMO-/- cells BacMam-transduced with hSMO D473H variant; settings: mSHh-treated, 24 hours; for IC50: Gli1 inhibition by qPCR, read-out: Human D473H pIC50 (converted); for Human D473H % Inh: percentage Gli1 inhibition
T6 construct: expressed in transfected cells; host or cells: SMO knock-out mouse embryonic fibroblasts (MEF SMO-/-), BacMam transduction
T6 sequence (Q99835 28-787 D473H): as the sequence (Q99835 28-787 W535L) above, with D446H, L508W counted along it
Method: Cell culture. All materials were purchased from Sigma-Aldrich, unless otherwise stated.
as §3, with “concentrations.” for “concentrations. After 1 hour incubation, cells were treated with assay medium containing mSHh prepared at 2.5× of final assay concentrations specified in the text and incubated for a further 24 hours at 37° C. in a humidified 95% air/5% ° C.2 atmosphere prior to qPCR analysis.”
as §4

Row | Structure (SMILES) | IC50 (mouse SMO^D473H) [nM] | Mouse D473H % Inh (mouse SMO^D473H) [%] | IC50 (human SMO W535L) [nM] | Human W535L % Inh (human SMO W535L) [%] | IC50 (hSMO WT) [nM] | Human WT % Inh (hSMO WT) [%] | IC50 (mouse SMO^WT) [nM] | Mouse WT % Inh (mouse SMO^WT) [%] | IC50 (mouse SMO^W535L) [nM] | Mouse W535L % Inh (mouse SMO^W535L) [%] | IC50 (human SMO D473H) [nM] | Human D473H % Inh (human SMO D473H) [%]
1 | Cc1oc(-c2ccc(NC(=O)c3cccc(CN4CCS(=O)(=O)CC4)c3)cc2)nc1C1CC1 [Example 4-2, N-[4-(4-Cyclopropyl-5-methyl-1,3-oxazol-2-yl)phenyl]-3-[(1,1-dioxo-1,4-thiazinan-4-yl)methyl]benzamide] | 2.51 | 98.4 | 25.1 | 104.6 | 0.501 | 97.8 | 0.631 | 97.5 | 15.8 | 75.3 | 31.6 | 104.2
2 | O=C(Nc1ccc(-c2nc(Cc3ccc(Br)cc3)n[nH]2)cc1)c1cccc(CN2CCS(=O)(=O)CC2)c1 [Example 3-24, N-[4-[3-[(4-bromophenyl)methy]-1H-1,2,4-triazol-5-yl]phenyl]-3-[(1,1-dioxo-1,4-thiazinan-4-yl)methyl]benzamide] | 50.1 | 98.5 | 25.1 | 98.5 | 6.31 | 94 | 3.98 | 98.8 | 39.8 | 72.5 | 25.1 | 104
3 | Cc1c(-c2ccc(NC(=O)c3ccc(Cl)c(CN4CCS(=O)(=O)CC4)c3)cc2)nn(C)c1C1CC1 [Example 4-26, 4-Chloro-N-[4-(5-cyclopropyl-1,4-dimethylpyrazol-3-yl)phenyl]-3-[(1,1-dioxo-1,4-thiazinan-4-yl)methyl]benzamide] | 6.31 | 97.6 | 6.31 | 92.5 | 0.794 | 99.2 | 0.794 | 97.0 | 5.01 | 58.6 | 63.1 | 111.9
4 | O=C(Nc1ccc(-c2noc(Cc3ccc(F)cc3)n2)cc1)c1cccc(CN2CCS(=O)(=O)CC2)c1 [Example 4-17, 3-[(1,1-Dioxo-1,4-thiazinan-4-yl)methyl]-N-[4-[5-[(4-fluorophenyl)methyl]-1,2,4-oxadiazol-3-yl]phenyl]benzamide] | 7.94 | 97.4 | 20 | 102.7 | 0.794 | 99.3 | 2 | 97.2 | 6.31 | 68.6 | 39.8 | 114.2
